Data from patent US6656911B2, “Serine protease inhibitors” (Cortech, Inc., priority 1994, dated 2003).

Tests used:
[1] = Blood level screening after oral dose; format: in vivo, Sprague-Dawley rats; settings: rat, oral gavage 10 mg/kg; for concentration at 3 h: read-out: Plasma Levels (μM) 3 hr
Method: The inhibitors were dissolved or suspended in polyethylene glycol (PEG), PEG-400 or PEG:H2O:EtOH at a concentration of 10 mg/ml. Unfasted male Sprague-Dawley rats were given an oral dose of this solution by gavage. Rats received 10 mg inhibitor/kg body weight in a volume of 1 ml/kg. After 1,3 or 6 hr., the rats were killed with an overdose of urethane (2.5 g/kg; i.p.) and the blood collected in a heparinized tube via cardiac puncture. Red blood cells were separated from the plasma by centrifugation.
Depending on the inhibitor, one of four organics (ethyl acetate, toluene, isopropyl ether or methyl t-butyl ether) was used to extract the compound from the plasma. Inhibitor concentrations were measured by HPLC or LC/MS analysis.

[2] = target: T1, human neutrophil elastase (HNE) (Homo sapiens, UniProt P08246); test: HNE Ki of CE compounds, tested as described in WO 96/16080; format: biochemical; settings: read-out: HNE Ki
T1 sequence (P08246 30-267): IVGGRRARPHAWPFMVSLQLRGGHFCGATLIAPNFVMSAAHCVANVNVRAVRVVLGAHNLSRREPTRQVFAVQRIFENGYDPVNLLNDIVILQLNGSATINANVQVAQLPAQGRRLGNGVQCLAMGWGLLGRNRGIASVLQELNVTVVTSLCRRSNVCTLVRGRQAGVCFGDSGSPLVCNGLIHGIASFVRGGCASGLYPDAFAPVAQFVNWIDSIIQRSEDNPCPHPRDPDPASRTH

| Ki [2] [nM] | Molecule | further results |
| --- | --- | --- |
| 36.4 | CC(C)[C@H](NC(=O)CN1C(=O)NC(c2ccncc2)(N2C(=O)CCC2=O)C1=O)C(=O)c1noc(Cc2cccc(C(F)(F)F)c2)n1 (stereo partly drawn) [CE2209, [4-(R,S)-(4-pyridyl)-4-(R,S)-N-succinimidyl]-2,5-imidazolidinedione-N-[1-(3-[5-(3-trifluoromethylbenzyl)-1,2,4-oxadiazolyl]carbonyl)-2-(S)-methylpropyl]acetamide] | Plasma Levels (μM) 3 hr [1]: 0 µM |
| 5 | BTD-[1-(2-[5-(3-methylbenzyl)-1,3,4-oxadiazolyl]carbonyl)-2-(S)-methylpropyl]amide [CE2126] | Plasma Levels (μM) 3 hr [1]: 0.161 µM |
| 2.6 | CC(=O)N1c2ccccc2C[C@H]1C(=O)N[C@H](C(=O)c1nnc(Cc2cccc(C)c2)o1)C(C)C [CE2165, N-Acetyl-2-(L)-(2,3-dihydro-1H-indole)-N-[1-(2-[5-(3-methylbenzyl) 1,3,4-oxadiazolyl]carbonyl)-2-(S)-methylpropyl]amide] | concentration at 3 h ([1]; male, Sprague-Dawley, plasma): 0.067 µM |
| 0.14 | COC(=O)N[C@H](C(=O)N1CCC[C@H]1C(=O)N[C@H](C(=O)c1nnc(Cc2cccc(C)c2)o1)C(C)C)C(C)C [CE2213, Methyloxycarbonyl-L-valyl-N-[1-(2-[5-(3-methylbenzyl)-1,3,4-oxadiazolyl]carbonyl)-2-(S)-methylpropyl]-L-prolinamide] | concentration at 3 h ([1]; male, Sprague-Dawley, plasma): 0.19 µM |
| 163 | Cc1cccc(Cc2nnc(C(=O)[C@@H](NC(=O)Cn3c(=O)ncc4ccccc43)C(C)C)o2)c1 [CE2215, 1,4-Quinazolin-2-one-N-[1-(2-[5-(3-methylbenzyl)-1,3,4-oxadiazolyl]carbonyl)-2-(S)-methylpropyl]acetamide] | Plasma Levels (μM) 1 hr ([1]; 1 hr): 1.16 µM; Plasma Levels (μM) 3 hr [1]: 0.83 µM; Plasma Levels (μM) 6 hr [1]: 0.63 µM |
| 16 | Cc1cccc(Cc2nnc(C(=O)[C@@H](NC(=O)CN3C(=O)NC4(CCCC4)C3=O)C(C)C)o2)c1 [CE2231, 4-Spirocyclopentane-2,5-imidazolidinedione-N-[1-(2-[5-(3-methylbenzyl)-1,3,4-oxadiazolyl]carbonyl)-2-(S)-methylpropyl]acetamide] | Plasma Levels (μM) 1 hr ([1]; 1 hr): 1.226 µM; Plasma Levels (μM) 3 hr [1]: 0.787 µM; Plasma Levels (μM) 6 hr [1]: 0.531 µM |
| 7.4 | Cc1cccc(Cc2nnc(C(=O)[C@@H](NC(=O)CN3C[C@@H](c4ccccc4)N(C(=O)OCc4ccccc4)CC3=O)C(C)C)o2)c1 [CE2204, 1-Benzyloxycarbonyl-(2-(R)-phenylpiperazin-5-one)-N-[-(2-[5-(3-methylbenzyl)-1,3,4-oxadiazolyl]carbonyl)-2-(S)-methylpropyl]acetamide] | concentration at 3 h ([1]; male, Sprague-Dawley, plasma): 0.48 µM |
| 40 | Cc1cccc(Cc2nnc(C(=O)[C@@H](NC(=O)CN3C(=O)N[C@@H](CC(C)C)C3=O)C(C)C)o2)c1 [CE2227, 4-(S)-(2-Isobutyl)-2,5-imidazolidinedione-N-[1-(2-[5-(3-methylbenzyl)-1,3,4-oxadiazolyl]carbonyl)-2-(S)-methylpropyl]acetamide] | Plasma Levels (μM) 1 hr ([1]; 1 hr): 1.276 µM; Plasma Levels (μM) 3 hr [1]: 0.74 µM; Plasma Levels (μM) 6 hr [1]: 0.962 µM |
| – | Cc1cccc(Cc2nc(C(=O)[C@@H](NC(=O)[C@@H]3CCCN3C(=O)[C@@H](NC(=O)OCc3ccccc3)C(C)C)C(C)C)no2)c1 [CE2055, (Benzyloxycarbonyl)-L-valyl-N-[1-(3-[5-(3-methylbenzyl)-1,2,4-oxadiazolyl]carbonyl)-2-(S)-methylpropyl]-L-prolinamide] | concentration at 3 h ([1]; male, Sprague-Dawley, plasma): 0.002 µM |
| 20 | CC(=O)N1CC(=O)N(CC(=O)N[C@H](C(=O)c2nnc(Cc3cccc(C)c3)o2)C(C)C)C(=Cc2ccc(N(C)C)cc2)C1=O [CE2111, 1-Acetyl-3-(4-dimethylaminobenzylidene) piperazine-2,5-dione-N-[1-(2-[5-(3-methylbenzyl)-1,3,4-oxadiazolyl]carbonyl)-2-(S)-methylpropyl]acetamide] | concentration at 3 h ([1]; male, Sprague-Dawley, plasma): 0.69 µM |
| 39 | Cc1cccc(Cc2nnc(C(=O)[C@@H](NC(=O)Cn3c(=O)c(N)cc4ccccc43)C(C)C)o2)c1 [CE2113, 3-(Amino-quinoline-2-one)-N[1-(2-[5-(3-methylbenzyl)-1,3,4-oxadiazolyl]carbonyl)-2-(S)-methylpropyl]acetamide] | concentration at 1 h ([1]; male, Sprague-Dawley, plasma, 1 hr, read-out: Plasma Levels (μM) 1 hr): 1.83 µM; concentration at 3 h ([1]; male, Sprague-Dawley, plasma): 0.909 µM |
| 0.039 | CC(C)[C@H](NC(=O)[C@@H]1CCCN1C(=O)[C@@H](NC(=O)OCc1ccccc1)C(C)C)C(=O)c1nnc(Cc2cccc(C(F)(F)F)c2)o1 [CE2075, (Benzyloxycarbonyl)-L-valyl-N-[1-(2-[5-(3-trifluoromethylbenzyl)-1,3,4-oxadiazolyl]carbonyl)-2-(S)-methylpropyl]-L-prolinamide] | – |
| 44 | CC(C)C(NC(=O)CN1C(=O)C(Cc2ccccc2)N(CCN2CCOCC2)C1=O)C(=O)c1noc(Cc2cccc(C(F)(F)F)c2)n1 [CE2180, 1-(N-Morpholinoethyl)-5-(R)-benzyl-2,4-imidazolidinedione-N-[1-(3-[5-(3-trifluoromethylbenzyl)-1,2,4-oxadiazolyl]carbonyl)-2-(R,S)-methylpropyl]acetamide] | – |
| 0.42 | Cc1cccc(Cc2nnc(C(=O)[C@@H](NC(=O)Cn3c(-c4cccs4)ncc(N)c3=O)C(C)C)o2)c1 [CE2262, 2-[5-Amino-6-oxo-2-thiophenyl-1,6-dihydro-1-pyrimidinyl]-N-[1-(2-[5-(3-methylbenzyl)-1,3,4-oxadiazolyl]carbonyl)-2-(S)-methylpropyl]acetamide] | – |
| 1 | CC(C)[C@H](NC(=O)[C@@H]1CCCN1C(=O)[C@@H](NC(=O)OCc1ccccc1)C(C)C)C(=O)c1noc(Cc2ccc(N(C)C)cc2)n1 [CE2115, (Benzyloxycarbonyl)-L-valyl-N-[1-(3-[5-(4-dimethylaminobenzyl)-1,2,4-oxadiazolyl]carbonyl)-2-(S)-methylpropyl]-L-prolinamide] | – |
| 57 | CC(C)[C@H](NC(=O)CN1C(=O)N[C@@H](Cc2ccccc2)C1=O)C(=O)c1noc(Cc2cccc(C(F)(F)F)c2)n1 [CE2155, 5-(S)-Benzyl-2,4-imidazolidinedione-N-[1-(3-[5-(3-trifluoromethylbenzyl)-1,2,4-oxadiazolyl]carbonyl)-2-(S)-methylpropyl]acetamide] | – |
| 1600 | Cc1cccc(Cc2nnc(C(=O)[C@@H](NC(=O)CN3CC(=O)N(c4ccccc4)CC3=O)C(C)C)o2)c1 [CE2147, (1-Phenyl-3,6-piperazinedione)-N-[1-(2-[5-(3-methylbenzyl)-1,3,4-oxadiazolyl]carbonyl)-2-(S)-methylpropyl]acetamide] | – |
| 1.2 | COC(=O)c1ccc(C=C2C(=O)N(C(C)=O)CC(=O)N2CC(=O)N[C@H](C(=O)c2nnc(Cc3cccc(C)c3)o2)C(C)C)cc1 [CE2112, 1-Acetyl-3-(4-carbomethoxybenzylidene) piperazine-2,5-dione-N-[1-(2-[5-(3-methylbenzyl)-1,3,4-oxadiazolyl]carbonyl)-2-(S)-methylpropyl]acetamide] | – |
| 0.033 | (Benzyloxycarbonyl)-L-valyl-N-[1-(2-[5-(1-napthylenyl)-1,3,4-xadiazolyl]carbonyl)-2-(S)-methylpropyl]-L-prolinamide [CE2124] | – |
| 99 | CC(C)[C@H](NC(=O)CN1C(=O)CN(Cc2ccccc2)C1=O)C(=O)c1noc(Cc2cccc(C(F)(F)F)c2)n1 [CE2189, 1-Benzyl-2,4-imidazolidinedione-N-[1-(3-[5-(3-trifluoromethylbenzyl)-1,2,4-oxadiazolyl]carbonyl)-2-(S)-methylpropyl]acetamide] | – |
| 1 | Cc1nnc(C(=O)[C@@H](NC(=O)[C@@H]2CCCN2C(=O)[C@@H](NC(=O)OCc2ccccc2)C(C)C)C(C)C)o1 [CE2074] | – |
| 558 | CC(C)C(NC(=O)CN1C(=O)C[S+]([O-])C1Cc1ccccc1)C(=O)c1noc(Cc2cccc(C(F)(F)F)c2)n1 [CE2137, 2-[2-(R,S)-Benzyl-4-oxothiazolidin-3-yloxide]-N-[1-(3-[5-(3-trifluoromethylbenzyl)-1,2,4-oxadiazolyl]carbonyl)-2-(R,S)-methylpropyl]acetamide] | – |
| 63 | Cc1cccc(Cc2nnc(C(=O)[C@@H](NC(=O)CN3C(=O)CSC3Cc3ccccc3)C(C)C)o2)c1 (stereo partly shown) [CE2122] | – |

| Molecule | Ki [2] [nM] | further results |
| --- | --- | --- |
| CC(C)OC(=O)N[C@H](C(=O)N1CCC[C@H]1C(=O)N[C@H](C(=O)c1noc(Cc2cccc(C(F)(F)F)c2)n1)C(C)C)C(C)C [CE2207, Isopropytoxycarbonyl-L-valyl-N-[1-(3-[5-(3-trifluoromethylbenzyl)-1,2,4-oxadiazolyl]carbonyl)-2-(S)-methylpropyl]-L-prolinamide] | 1.2 | concentration at 3 h ([1]; male, Sprague-Dawley, plasma): 0 µM |
| Cc1cccc(Cc2nnc(C(=O)[C@@H](NC(=O)CN(C(=O)c3ccc[nH]3)C3CCc4ccccc43)C(C)C)o2)c1 (stereo partly drawn) [CE2195, (Pyrrole-2-carbonyl)-N-[1-(R,S)-indanyl]glycyl-N-[1-(2-[5-(3-methylbenzyl)-1,3,4-oxadiazolyl]carbonyl)-2-(S)-methylpropyl]amide] | 10.6 | – |
